Data taken from ChEMBL document CHEMBL4706673, “The study on structure-activity relationship between chromone derivatives and inhibition of superoxide anion generating from human neutrophils” (Bioorg Med Chem Lett, 2021).
pIC50: −log10 of the molar value. Active and inactive are the calls of the source. The rule behind the calls is not given here.

Columns and labels:
Neutrophil = test: Inhibition of elastase release in fMLF/CB-stimulated human neutrophil at 10 µM
[1] = Inhibition of fMLF/CB-induced superoxide anion generation in human neutrophil at 10 uM relative to control; format: functional
[2] = Inhibition of fMLF/CB-induced superoxide anion generation in human neutrophil; format: functional, tissue-based

| Compound | inhibition (Neutrophil) | inhibition at 10 µM [1] [%] | pIC50 [2] |
| --- | --- | --- | --- |
| COc1ccc2oc(Sc3cccc(F)c3)cc(=O)c2c1 | inactive | 17.3 | < 5.00 |
| COc1ccc2c(=O)cc(Oc3cccc(O)c3)oc2c1 | inactive | 6.9 | < 5.00 |
| COc1cc2oc(Sc3cccc(F)c3)cc(=O)c2c(OC)c1OC | inactive | 47.5 | < 5.00 |
| COc1ccc2c(=O)cc(Sc3cccc(F)c3)oc2c1 | inactive | 70.9 | 5.30 |
| COc1cc(OC)c2c(=O)cc(Sc3cccc(F)c3)oc2c1 | inactive | 61 | 5.15 |
| COc1cc(OC)cc(Oc2cc(=O)c3c(OC)cccc3o2)c1 | inactive | -0.4 | < 5.00 |
| COc1cccc(Oc2cc(=O)c3c(OC)cc(OC)cc3o2)c1 | inactive | 22.4 | < 5.00 |
| COc1cc(OC)c2c(=O)cc(Oc3ccc(OC)c(OC)c3)oc2c1 | inactive | 7.8 | < 5.00 |
| COc1ccc(Oc2cc(=O)c3c(OC)cccc3o2)cc1OC | inactive | 12.8 | < 5.00 |
| COc1cccc2oc(Sc3cccc(F)c3)cc(=O)c12 | inactive | 10.6 | < 5.00 |
| COc1cc(OC)cc(Oc2cc(=O)c3c(OC)cc(OC)cc3o2)c1 | inactive | 27.5 | < 5.00 |
| COc1cc(OC)c2c(=O)cc(Oc3ccccc3OC)oc2c1 | inactive | 2.5 | < 5.00 |
| COc1ccc2c(=O)cc(Oc3ccc(O)c(OC)c3)oc2c1 | inactive | 71.3 | 5.28 |
| O=c1cc(N2CCOCC2)oc2c(-c3ccccc3)cccc12 [LY-294002] | – | 93.4 | 5.89 |
| COc1cccc(Oc2cc(=O)c3ccc(OC)cc3o2)c1 | inactive | 46.8 | < 5.00 |
| COc1ccc2c(=O)cc(Oc3ccccc3OC)oc2c1 | inactive | 3.8 | < 5.00 |
